One experiment has as its system rat. Kind of experiment: Increase in intragastric pressure in the rat. Particulars: conscious restrained rats, subcutaneous administration, increase in intragastric pressure over 40 minute period after dosing. It is filed as in vivo. As for the experimental part:
Intragastric pressure changes were recorded from previously starved conscious but retrained rats using a saline filled catheter inserted into the lumen of the stomach via a permanent gastric fistula. The catheter was connected to a physiological pressure transducer and pressure changes recorded on a hot wire pen recorder. In each animal a pre-dose period of 40 minutes was allowed to obtain a measure of spontaneous activity. An index of activity was obtained by measuring the average height of pressure waves during 10 minute periods. Values for 4 such periods were obtained during assessment of spontaneous activity and for the 40 minute period after the subcutaneous administration of the compounds. Students 't' test was applied to the difference in average values obtained for spontaneous and post-compound activity.

In the next experiment the test system is mouse. Kind of experiment: Inhibition of apomorphine induced climbing in the mouse. Format: in vivo. The following applies: sc, apomorphine 1 mg/kg s.c., compounds given subcutaneously, climbing scored at 10, 20 and 30 minutes, I + number = inactive at that dose. As for the experimental part: The test is based on that described by Protais, P., Constantin, J. and Schwartz, J.C.
Apomorphine 1 mg/kg s.c. induces mice to climb the wall of a wire cage (inverted food hopper - 11 x 7.5 x 18 cm high). Mice acclimatised in their home cages in groups of 5 are placed under the hoppers immediately after the injection of apomorphine 1 mg/kg s.c. At 10, 20 and 30 minutes after injection climbing behaviour is scored. The mice are observed for 30 seconds and scored according to the position in which they spend the majority of time, score O - four paws on floor of cage; score 1 - fore paws only on walls; score 2 - all paws on wall of cage. The scores at all 3 times and for each mouse are summed and mice drug treated subcutaneously compared to mice receiving apomorphine only.
Compounds were also tested for their ability to inhibit apomorphine induced climbing in the mouse.

From EP0047620A1, “Aryl diazabicyclyl amides, a process for their preparation and use” (BEECHAM GROUP PLC, priority 1980, dated 1982) come the findings set out here.

By ED50 is commonly meant the midpoint of the dose-response relation.

`COc1cc(N)c(Cl)cc1C(=O)NC1CCN2CCCCN2C1` (racemic) [Example 2, (±) 4-Amino-5-chloro-2-methoxy-N-(3-{1,6-diazabicyclo [4,4,0]decyl}) benzamide]: in the experiment on rat (Rattus norvegicus, sc, 40 min, read-out: Dose mg/kg Subcutaneously (minimum dose for activity)), the minimal effective dose turned out to be 1 mg/kg. In the experiment on mouse, the ED50 was 110 mg/kg. Turning to `COc1cc(N)c(Cl)cc1C(=O)NC1CN2CCC(c3ccccc3)CN2C1` (centres unmarked) [Example 8, 4-Amino-5-chloro-2-methoxy-N-(3-{7-phenyl-1,5-diaza-bicyclo[4,3,0]nonyl})benzamide], in the experiment on mouse, the ED50 is 4.5 mg/kg. On to “(±) 4-Amino-5-chloro-2-methoxy-N-(7 or 8- {2-methyl-1,5-diazabicyclo[4,3,0]nonyl})benzamide [Example 14]”, for which the “Dose mg/kg Subcutaneously (minimum dose for activity)” value with rat turned out to be 0.5 mg/kg. Same read-out and setting: the value for “(±) 4-Amino-5-chloro-2-methoxy-N-(7 or 8-{2- methyl-1,5-diazabicyclo[4,3,0]nonyl})benzamide [Example 15]” was 1.0 mg/kg.
